Data on 32 molecules can be found in patent US20260015360A1 (MOMA Therapeutics, Inc., priority 2023, published 2026).

The experiment concerns the target T1, biotinylated Avi-POLΘ[2-894] (Homo sapiens, UniProt O75417).
T1 construct: 1 nM biotinylated Avi-POLΘ[2-894]
The experiment in a line: ATPase assay (ADP-Glo): POLΘ-mediated ATP hydrolysis. Conditions: read-out: Biochemical ATPase ADPGlo IC50.

T1 sequence (O75417 2-894 limits assumed): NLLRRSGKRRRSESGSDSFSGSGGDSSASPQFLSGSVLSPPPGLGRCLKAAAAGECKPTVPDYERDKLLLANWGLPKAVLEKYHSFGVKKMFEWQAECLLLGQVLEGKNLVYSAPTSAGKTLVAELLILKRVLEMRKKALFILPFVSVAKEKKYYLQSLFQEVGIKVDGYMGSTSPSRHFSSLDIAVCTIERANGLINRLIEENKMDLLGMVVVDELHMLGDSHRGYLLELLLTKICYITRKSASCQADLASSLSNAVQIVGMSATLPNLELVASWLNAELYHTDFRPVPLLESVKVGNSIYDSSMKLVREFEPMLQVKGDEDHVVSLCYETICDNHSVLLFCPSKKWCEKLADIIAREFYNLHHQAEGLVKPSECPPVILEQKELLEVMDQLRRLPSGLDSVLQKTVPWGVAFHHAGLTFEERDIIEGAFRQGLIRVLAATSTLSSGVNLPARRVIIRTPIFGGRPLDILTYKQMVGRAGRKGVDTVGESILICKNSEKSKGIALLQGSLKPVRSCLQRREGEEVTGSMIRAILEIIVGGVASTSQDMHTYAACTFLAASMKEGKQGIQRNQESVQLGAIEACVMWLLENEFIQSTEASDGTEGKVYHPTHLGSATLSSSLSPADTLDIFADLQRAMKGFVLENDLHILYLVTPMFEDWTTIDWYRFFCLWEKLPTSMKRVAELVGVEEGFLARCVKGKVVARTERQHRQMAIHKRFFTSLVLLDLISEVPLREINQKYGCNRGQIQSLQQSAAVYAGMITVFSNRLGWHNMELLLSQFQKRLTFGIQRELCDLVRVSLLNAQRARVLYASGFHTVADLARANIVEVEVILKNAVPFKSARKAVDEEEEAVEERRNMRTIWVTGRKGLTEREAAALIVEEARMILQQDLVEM

Turning to `COc1cnc(Cl)cc1-c1cc(C)ncc1C(=O)Nc1nc2ncc(N3CCO[C@H](C)[C@H]3C)nc2s1` (single isomer, unassigned) [Example 402, 2′-chloro-N-(6-((2R or S,3R or S)-2,3-dimethylmorpholino)thiazolo [4,5-b]pyrazin-2-yl)-5′-methoxy-6-methyl-[4,4′-bipyridine]-3-carboxamide], the IC50 is 1 to 15 nM.
On to `COc1cnc(Cl)cc1-c1cc(C)ncc1C(=O)Nc1nc2ncc(N3CCO[C@@H](C)[C@H]3C)nc2s1` (single isomer, unassigned) [Example 408, 2′-chloro-N-(6-((2S or R,3R or S)-2,3-dimethylmorpholino)thiazolo [4,5-b]pyrazin-2-yl)-5′-methoxy-6-methyl-[4,4′-bipyridine]-3-carboxamide], for which the IC50 was 1 to 15 nM.
Turning to `COc1cnc(Cl)cc1-c1cc(C)ncc1C(=O)Nc1nc2ncc(N3CCO[C@@H](C)[C@@H]3C)nc2s1` (single isomer, unassigned) [Example 415, 2′-chloro-N-(6-((2S or R,3S or R)-2,3-dimethylmorpholino)thiazolo [4,5-b]pyrazin-2-yl)-5′-methoxy-6-methyl-[4,4′-bipyridine]-3-carboxamide], the IC50 lay within 15 to 50 nM.
On to `COc1ccc(C#N)cc1-c1cc(C)ncc1C(=O)Nc1nc2ncc(N3CCC(O)(C(F)F)CC3)nc2s1` (single isomer, unassigned) [Example 418, 4-(5-cyano-2-methoxyphenyl)-N-(6-(4-(difluoromethyl)-4-hydroxypiperidin-1-yl)thiazolo[4,5-b]pyrazin-2-yl)-6-methylnicotinamide], for which the IC50 was 1 to 15 nM.
The result for `COc1cnc(Cl)cc1-c1cc(C)ncc1C(=O)Nc1nc2ncc(C3CCOC3)nc2s1` (single isomer, unassigned) [Example 473, (R or S)-2′-chloro-5′-methoxy-6-methyl-N-(6-(tetrahydrofuran-3-yl)thiazolo[4,5-b]pyrazin-2-yl)-[4,4′-bipyridine]-3-carboxamide] reads 15 to 50 nM; that for `COc1cnc(Cl)cc1-c1cc(C)ncc1C(=O)Nc1nc2ncc(C3CCOC3)nc2s1` (single isomer, unassigned) [Example 479, (S or R)-2′-chloro-5′-methoxy-6-methyl-N-(6-(tetrahydrofuran-3-yl)thiazolo[4,5-b]pyrazin-2-yl)-[4,4′-bipyridine]-3-carboxamide], 1 to 15 nM; that for `COc1cnc(Cl)cc1-c1cc(C)ncc1C(=O)Nc1nc2ncc(C3CCOC3)cc2s1` (single isomer, unassigned) [Example 516, (S or R)-2′-chloro-5′-methoxy-6-methyl-N-(6-(tetrahydrofuran-3-yl)thiazolo[4,5-b]pyridin-2-yl)-[4,4′-bipyridine]-3-carboxamide], 1 to 15 nM.
With `COc1cnc(Cl)cc1-c1cc(C)ncc1C(=O)Nc1nn2cc(C(=O)N[C@H]3C[C@](O)(C(F)(F)F)C3)nc2s1` [Example 32, 2-(2′-chloro-5′-methoxy-6-methyl-[4,4′-bipyridine]-3-carboxamido)-N-((1s,3s)-3-hydroxy-3-(trifluoromethyl)cyclobutyl)imidazo[2,1-b][1,3,4]thiadiazole-6-carboxamide], the IC50 was > 900 nM.
`COc1cnc(Cl)cc1-c1cc(C)ncc1C(=O)Nc1nn2cc(C(=O)N3CC[C@H](O)C3)nc2s1` [Example 36, (S)-2′-chloro-N-(6-(3-hydroxypyrrolidine-1-carbonyl)imidazo[2,1-b][1,3,4]thiadiazol-2-y1)-5′-methoxy-6-methyl-[4,4′-bipyridine]-3-carboxamide]: the half-inhibitory concentration (IC50) was in the range of 15 to 50 nM.
The result for `COc1ccccc1-c1cc(C)ncc1C(=O)Nc1nc2ccc(Br)cc2o1` [Example 54, N-(6-Bromobenzo[d]oxazol-2-y1)-4-(2-methoxyphenyl)-6-methylnicotinamide] reads 15 to 50 nM; that for `COc1ccccc1-c1cc(C)ncc1C(=O)Nc1nc2ncc(C(F)(F)F)cc2s1` [Example 116], 15 to 50 nM; that for `COc1ccccc1-c1cc(C)ncc1C(=O)Nc1nc2nnc(Cl)cc2s1` [Example 117], 15 to 50 nM.
For the molecule `Cc1cc(C2=CCN(C(=O)OC(C)(C)C)CC2)c(C(=O)Nc2nc3ncc(-c4ccncc4)nc3s2)cn1` [Example 139], the concentration for half-maximal inhibition (IC50) is 150 to 900 nM.
For the molecule `Cc1cc(N2CCN(c3nccs3)CC2)c(C(=O)Nc2nc3ncc(-c4ccncc4)cc3s2)cn1` [Example 159, 6-methyl-N-(6-(pyridin-4-yl)thiazolo[4,5-b]pyridin-2-yl)-4-(4-(thiazol-2-yl)piperazin-1-yl)nicotinamide], the IC50 lay in the range of 150 to 900 nM.
Regarding `COc1ccccc1-c1cc(C)ncc1C(=O)Nc1nn2cc(C3CC3)nc2s1` [Example 168, N-(6-cyclopropylimi-dazo[2,1-b][1,3,4]thiadiazol-2-yl)-4-(2-methoxyphenyl)-6-methylnicotinamide], the IC50 lay within 150 to 900 nM.
`CC(=O)N1CC2(C1)CN(c1cc(C)ncc1C(=O)Nc1nc3ncc(-c4ccncc4)cc3s1)C2` [Example 202]: the IC50 is > 900 nM.
As to `COc1cnc(Cl)cc1-c1cc(C)ncc1C(=O)Nc1nn2cc(C(=O)N[C@H]3CC[C@@H](O)CC3)nc2s1` [Example 292], the IC50 fell in the range of 1 to 15 nM.
The result for `COc1cnc(Cl)cc1-c1cc(C)ncc1C(=O)Nc1nn2cc(C3CCCCC3)nc2s1` [Example 315] reads 1 to 15 nM; that for `COc1ccc(C#N)cc1-c1cc(C)ncc1C(=O)Nc1nn2cc(C(=O)N(C)C)nc2s1` [Example 316, 2-(4-(5-cyano-2-methoxyphenyl)-6-methylnicotinamido)-N,N-dimethylimidazo[2,1-b][1,3,4]thiadiazole-6-carboxamide], 15 to 50 nM.
`COc1cnc(Cl)cc1-c1cc(C)ncc1C(=O)Nc1nc2ncc(C3(OC)CCOCC3)nc2s1` [Example 373, 2′-chloro-5′-methoxy-N-(6-(4-methoxytetrahydro-2H-pyran-4-yl)thiazolo[4,5-b]pyrazin-2-yl)-6-methyl-[4,4′-bipyridine]-3-carboxamide]: the IC50 is 1 to 15 nM.
With `COc1cnc(Cl)cc1-c1cc(C)ncc1C(=O)Nc1nc2ncc(C3(O)CCOCC3)nc2s1` [Example 390, 2′-chloro-N-(6-(4-hydroxytetrahydro-2H-pyran-4-yl)thiazolo[4,5-b]pyrazin-2-yl)-5′-methoxy-6-methyl-[4,4′-bipyridine]-3-carboxamide] the figure was 15 to 50 nM; with `COc1cnc(Cl)cc1-c1cc(C)ncc1C(=O)Nc1nc2ncc(N3CCO[C@H]4CCC[C@@H]43)nc2s1` [Example 393, 2′-chloro-N-(6-((4aS,7aS)-hexahydrocyclopenta[b][1,4]oxazin-4(4aH)-yl)thiazolo[4,5-b]pyrazin-2-yl)-5′-methoxy-6-methyl-[4,4′-bipyridine]-3-carboxamide], 15 to 50 nM.
Consider `COc1cnc(Cl)cc1-c1cc(C)ncc1C(=O)Nc1nc2ncc(N3CCO[C@@H]4CCC[C@@H]43)nc2s1` [Example 395, 2′-chloro-N-(6-((4aS,7aR)-hexahydrocyclopenta[b][1,4]oxazin-4(4aH)-yl)thiazolo[4,5-b]pyrazin-2-yl)-5′-methoxy-6-methyl-[4,4′-bipyridine]-3-carboxamide], for which the concentration for half-maximal inhibition (IC50) is 15 to 50 nM.
On to `COc1cnc(Cl)cc1-c1cc(C)ncc1C(=O)Nc1nc2ncc(N3[C@H](C)COC[C@@H]3C)nc2s1` [Example 404, 2′-chloro-N-(6-((3R,5S)-3,5-dimethylmorpholino)thiazolo [4,5-b]pyrazin-2-yl)-5′-methoxy-6-methyl-[4,4′-bipyridine]-3-carboxamide], for which the IC50 was 15 to 50 nM.
As for `COc1cnc(Cl)cc1-c1cc(C)ncc1C(=O)Nc1nc2ncc(N3CCOC[C@@H]3C(F)(F)F)nc2s1` [Example 414, (R)-2′-chloro-5′-methoxy-6-methyl-N-(6-(3-(trifluoromethyl)morpholino)thiazolo[4,5-b]pyrazin-2-yl)-[4,4′-bipyridine]-3-carboxamide], the IC50 was in the range of 15 to 50 nM.
The result for `COc1cnc(Cl)cc1-c1cc(C)ncc1C(=O)Nc1nc2ncc(N3CCOC[C@H]3C(F)(F)F)nc2s1` [Example 416, (S)-2′-chloro-5′-methoxy-6-methyl-N-(6-(3-(trifluoromethyl)morpholino)thiazolo[4,5-b]pyrazin-2-yl)-[4,4′-bipyridine]-3-carboxamide] reads 15 to 50 nM; that for `COc1cnc(Cl)cc1-c1cc(C)ncc1C(=O)Nc1nc2ncc(N3C[C@@H](C)OC[C@@H]3C)nc2s1` [Example 419, 2′-chloro-N-(6-((2R,5S)-2,5-dimethylmorpholino)thiazolo [4,5-b]pyrazin-2-yl)-5′-methoxy-6-methyl-[4,4′-bipyridine]-3-carboxamide], 1 to 15 nM; that for `COc1cnc(Cl)cc1-c1cc(C)ncc1C(=O)Nc1nc2ncc(N3[C@H](C)COC[C@H]3C)nc2s1` [Example 423, 2′-chloro-N-(6-((3R,5R)-3,5-dimethylmorpholino)thiazolo [4,5-b]pyrazin-2-yl)-5′-methoxy-6-methyl-[4,4′-bipyridine]-3-carboxamide], 1 to 15 nM.
Take `COc1cnc(Cl)cc1-c1cc(C)ncc1C(=O)Nc1nc2ncc(N3CCOC(C)C3C)nc2s1` (centres unmarked) [Example 425, 2′-chloro-N-(6-(2,3-dimethylmorpholino)thiazolo [4,5-b]pyrazin-2-yl)-5′-methoxy-6-methyl-[4,4′-bipyridine]-3-carboxamide]: the IC50 fell in the range of 1 to 15 nM.
Regarding `COc1cnc(Cl)cc1-c1cc(C)ncc1C(=O)Nc1nc2ncc(N3CCOCC3C(F)F)nc2s1` (centres unmarked) [Example 426, 2′-chloro-N-(6-(3-(difluoromethyl)morpholino)thiazolo[4,5-b]pyrazin-2-yl)-5′-methoxy-6-methyl-[4,4′-bipyridine]-3-carboxamide], the IC50 lay in the range of 15 to 50 nM.
Take `COc1cnc(Cl)cc1-c1cc(C)ncc1C(=O)Nc1nc2ncc(N3C[C@@H](C)O[C@@H](C)C3)nc2s1` [Example 437, 2′-chloro-N-(6-((2S,6R)-2,6-dimethylmorpholino)thiazolo [4,5-b]pyrazin-2-yl)-5′-methoxy-6-methyl-[4,4′-bipyridine]-3-carboxamide]: the concentration for half-maximal inhibition (IC50) fell in the range of 1 to 15 nM.
In the case of `COc1cnc(Cl)cc1-c1cc(C)ncc1C(=O)Nc1nc2ncc([C@H]3CC[C@@H](C#N)CC3)nc2s1` [Example 451, 2′-chloro-N-(6-((1s,4s)-4-cyanocyclohexyl)thiazolo[4,5-b]pyrazin-2-yl)-5′-methoxy-6-methyl-[4,4′-bipyridine]-3-carboxamide], the IC50 lay in the range of 1 to 15 nM.
